“And” between values parts separate entries of the source, which are not always exact repeats. Identical values can stand only once.
Assays:
rainbow trout = test: In vivo bioconcentration experiment with a mixture of anionic surfactants, flow-through aquaria, 10 °C, pH 7.8; conditions: for Log BCF: determined with measured concentrations in water; for Concentration in fish: individual fish; for diffusion coefficient (D) in the epithelial membrane of the gills: in vivo; for BCF (kinetic): kinetic BCF from measured concentrations in water
Description: The bioconcentration of a mixture of 10 anionic surfactants was measured in rainbow trout in water at pH 7.8. […] The experiment was conducted in flow-through aquaria with juvenile rainbow trout at 10 °C. Ethical approval for the experiments was obtained from Stockholms […] (decision 9967-2017). The fish, fish housing, fish handling, and procedure for introducing the mixture of […] chemicals were very similar to our previous study with cationic surfactants;[5] details are provided in Text S1. The experiment consisted of a 4-day exposure phase and a 7-day depuration phase. […] Water samples were collected and fish were sacrificed according to the schedule in Table S4. The water samples were collected just prior to the daily removal of feces from the aquarium. Triplicate samples were taken at each time point. […] The water/methanol mixture was analyzed using liquid chromatography-mass spectrometry (LC-MS)/MS as described below for fish. At each fish sampling, five fish were sacrificed. Following stunning and severance of the spinal cord, the whole fish were placed in a polyethylene bag, weighed, and immediately frozen at -20 °C. The weight of the individual fish at sacrifice was 24.0 ± 5.6 g. Three of the five fish from each time point were prioritized for analysis based on proximity to the median fish weight. Each fish was […] homogenized with an Ultra-turrax dispersing device. […] This mixture was homogenized in a bullet blender for 5 min and then placed in an ultrasound bath at 45 °C for 15 min. Following centrifugation for 15 min@3200 RCF, the supernatant was decanted and the extraction was repeated. The extracts were combined. For instrumental analysis, 5 μL of the fish extract or 60 μL of the water/methanol mixture (water samples) was separated on an Acquity UPLC BEH C18 column fitted with a BEH C18 pre-column and analyzed on a TSQ Quantiva triple quadrupole mass spectrometer. The mobile phase was methanol (10 mM ammonium acetate) and Milli-Q-filtered water (10 mM ammonium acetate) (see Table S5 for the liquid chromatography program). To avoid detergent blank peaks originating from cleaning mobile phase bottles, the methanol was prepared directly in the solvent bottle as delivered and Milli-Q was tapped into an empty methanol bottle. Furthermore, a guard column was fitted between the mobile phase and the autosampler to prevent background contamination from disturbing the analysis. All analytes were quantified against the BEHP internal standard, as it gave better reproducibility. […] The central goal of the analysis was to estimate kU and kT as well as the BCF (=kU/kT) from measurements of surfactant concentration in fish and water samples collected at different time points of the experiment. For the fish, only those time points were included for which CF(measured) was above the limit of quantitation (LOQ) in all three fish (data below the LOQ will have a positive bias; including them would result in a negative bias in kT). In this analysis, there exist two sources of uncertainty: first, uncertainty in the actual concentration in water CW at the time of sample collection and second, variability in the concentration in fish around the (expected) surfactant concentrations in fish assumed to follow model (1). We therefore set up a model in which we considered uncertainty in both water and fish measurements simultaneously by assuming a parametric model for the surfactant concentration in the water over time (either linear or quadratic) and accounted for the uncertainty in the corresponding parameters of the water model during the estimation of kU and kT. This was done in a joint Bayesian model that we estimated via Hamiltonian Monte Carlo. […]

[1] = Baseline screening BCF (0.0125 DMLW, equilibrium partitioning, no biotransformation); conditions: for Log baseline BCF: determined as 0.0125 DMLW
Text: Recently, the concept of a baseline screening BCF was introduced for surfactants, based on equilibrium partitioning assuming no biotransformation.[19] The baseline screening BCF for the study chemicals exceeded the measured BCF by 1–2.5 orders of magnitude (Table S16), providing further evidence that biotransformation is an important factor influencing the elimination—and thereby the BCF—of the anionic surfactants studied here in rainbow trout. The deviation of PFOA and PFOS from the regression between BCF and DMLW (Figure 1, upper panel) is attributable to them not being biotransformed.
Table S16: Comparison of the BCF (determined with the measured concentrations in water) and the baseline screening BCF (determined as 0.0125 DMLWa)
CHEMICAL Log BCF Log baseline BCF Log difference […]
a Droge, S. T. J.; Scherpenisse, P.; Arnot, J. A.; Armitage, J. M.; McLachlan, M. S.; Nichols, J.; von der Ohe, P.; Bonnell, M.; Hodges, G. Screening the baseline fish bioconcentration potential of various types of surfactants using phospholipid binding data. Environ. Sci.: Processes Impacts

[2] = determined using nominal concentrations in water
[3] = from measured concentrations in water, Bayesian estimate, 95% credible interval in brackets
[4] = 95% credible interval in brackets
[5] = measured concentrations in water, simpler estimation method (Text S3), 95% confidence intervals in brackets

| Structure (SMILES) | BCF (rainbow trout; [2]) [L kg-1 ww] | Elimination rate constant kT (rainbow trout; [2]) [h⁻¹] | Uptake rate constant kU (rainbow trout; [2]) [L/kg/h] | Log BCF (rainbow trout) [L kg-1 ww] | Concentration in fish (rainbow trout; elimination phase, 97 h) | Concentration in fish (rainbow trout; elimination phase, 98 h) | Concentration in fish (rainbow trout; elimination phase, 100 h) | Concentration in fish (rainbow trout; elimination phase, 103 h) | Concentration in fish (rainbow trout; elimination phase, 120 h) | Concentration in fish (rainbow trout; elimination phase, 128 h) | Concentration in fish (rainbow trout; elimination phase, 144 h) | Concentration in fish (rainbow trout; elimination phase, 168 h) | Concentration in fish (rainbow trout; elimination phase, 192 h) | Concentration in fish (rainbow trout; elimination phase, 264 h) | Concentration in fish (rainbow trout; exposure phase, 1 h) | Concentration in fish (rainbow trout; exposure phase, 2 h) | Concentration in fish (rainbow trout; exposure phase, 3 h) | Concentration in fish (rainbow trout; exposure phase, 4 h) | Concentration in fish (rainbow trout; exposure phase, 6 h) | Concentration in fish (rainbow trout; exposure phase, 24 h) | also measured |
| --- | --- | --- | --- | --- | --- | --- | --- | --- | --- | --- | --- | --- | --- | --- | --- | --- | --- | --- | --- | --- | --- |
| CCCCCCCCCCCCCCS(=O)(=O)O [C14SO3, tetradecylsulfonate] | 32 | 0.028 | 0.90 | 1.47 | 113 ng g-1 ww and 118 ng g-1 ww and 164 ng g-1 ww | 130 ng g-1 ww and 119 ng g-1 ww and 109 ng g-1 ww | 185 ng g-1 ww and 93 ng g-1 ww and 114 ng g-1 ww | 94 ng g-1 ww and 194 ng g-1 ww and 108 ng g-1 ww | 62 ng g-1 ww and 81 ng g-1 ww and 50 ng g-1 ww | 60 ng g-1 ww and 45 ng g-1 ww and 68 ng g-1 ww | 42 ng g-1 ww and 31 ng g-1 ww and 70 ng g-1 ww | 30 ng g-1 ww and 28 ng g-1 ww and 16.5 ng g-1 ww | 11.9 ng g-1 ww and 8.6 ng g-1 ww and 12.7 ng g-1 ww | 6.6 ng g-1 ww and 4.8 ng g-1 ww and 1.75 ng g-1 ww | 38 ng g-1 ww and 7.5 ng g-1 ww and 72 ng g-1 ww | 11.3 ng g-1 ww and 11.7 ng g-1 ww and 6.8 ng g-1 ww | 16.0 ng g-1 ww and 19.9 ng g-1 ww and 15.9 ng g-1 ww | 27 ng g-1 ww and 153 ng g-1 ww and 415 ng g-1 ww | 41 ng g-1 ww and 39 ng g-1 ww and 32 ng g-1 ww | 101 ng g-1 ww and 111 ng g-1 ww and 80 ng g-1 ww | Concentration in fish (rainbow trout; exposure phase, 48 h): 152 ng g-1 ww and 155 ng g-1 ww and 117 ng g-1 ww; Concentration in fish (rainbow trout; exposure phase, 72 h): 180 ng g-1 ww and 141 ng g-1 ww and 103 ng g-1 ww; Concentration in fish (rainbow trout; exposure phase, 96 h): 168 ng g-1 ww and 150 ng g-1 ww and 178 ng g-1 ww; Elimination rate constant kT (rainbow trout; [3]): 0.024 (0.022–0.026) h^–1; Uptake rate constant kU (rainbow trout; [3]): 0.70 (0.61–0.80) L kg^–1 ww h^–1; diffusion coefficient (D) in the epithelial membrane of the gills (rainbow trout): 3.1 × 10^–8 m h^–1; BCF (kinetic) (rainbow trout; [4]): 30 (26–33) L kg^–1 ww; BCF (rainbow trout; [5]): 28 (8) L kg-1 ww; Elimination rate constant kT (rainbow trout; [5]): 0.026 (5) h-1; Uptake rate constant kU (rainbow trout; [5]): 0.73 (6) L kg-1 ww h-1; Log difference (baseline BCF vs BCF) [1]: 1.58 L kg-1 ww; Log baseline BCF [1]: 3.05 L kg-1 ww |
| CCCCCCCCCCCCCOS(=O)(=O)O [C13SO4, tridecylsulfate] | 31 | 0.074 | 2.29 | 1.53 | 99 ng g-1 ww and 120 ng g-1 ww and 148 ng g-1 ww | 111 ng g-1 ww and 104 ng g-1 ww and 80 ng g-1 ww | 104 ng g-1 ww and 78 ng g-1 ww and 80 ng g-1 ww | 58 ng g-1 ww and 80 ng g-1 ww and 82 ng g-1 ww | 32 ng g-1 ww and 40 ng g-1 ww and 25 ng g-1 ww | 21 ng g-1 ww (2×) and 29 ng g-1 ww | 14.4 ng g-1 ww and 11.1 ng g-1 ww and 13.5 ng g-1 ww | 12.9 ng g-1 ww and 6.4 ng g-1 ww and 7.3 ng g-1 ww | 4.0 ng g-1 ww and 4.7 ng g-1 ww and 3.9 ng g-1 ww | 3.8 ng g-1 ww and 2.1 ng g-1 ww and 1.7 ng g-1 ww | 34 ng g-1 ww and 28 ng g-1 ww and 54 ng g-1 ww | 40 ng g-1 ww and 42 ng g-1 ww and 27 ng g-1 ww | 61 ng g-1 ww and 67 ng g-1 ww and 60 ng g-1 ww | 88 ng g-1 ww and 108 ng g-1 ww and 187 ng g-1 ww | 139 ng g-1 ww and 132 ng g-1 ww and 97 ng g-1 ww | 255 ng g-1 ww (2×) and 188 ng g-1 ww | Concentration in fish (rainbow trout; exposure phase, 48 h): 140 ng g-1 ww and 234 ng g-1 ww and 190 ng g-1 ww; Concentration in fish (rainbow trout; exposure phase, 72 h): 201 ng g-1 ww and 154 ng g-1 ww and 128 ng g-1 ww; Concentration in fish (rainbow trout; exposure phase, 96 h): 175 ng g-1 ww and 150 ng g-1 ww and 275 ng g-1 ww; Elimination rate constant kT (rainbow trout; [3]): 0.048 (0.043–0.053) h^–1; Uptake rate constant kU (rainbow trout; [3]): 1.62 (1.38–1.91) L kg^–1 ww h^–1; diffusion coefficient (D) in the epithelial membrane of the gills (rainbow trout): 3.9 × 10^–8 m h^–1; BCF (kinetic) (rainbow trout; [4]): 34 (29–40) L kg^–1 ww; BCF (rainbow trout; [5]): 31 (16) L kg-1 ww; Elimination rate constant kT (rainbow trout; [5]): 0.053 (7) h-1; Uptake rate constant kU (rainbow trout; [5]): 1.64 (15) L kg-1 ww h-1; BCF (rainbow trout; own values): 34 L kg^–1; Log difference (baseline BCF vs BCF) [1]: 1.78 L kg-1 ww; Log baseline BCF [1]: 3.31 L kg-1 ww |
